Data on 9 molecules can be found in patent US6893830B1, “Method of screening oxysterol activation of LXRα” (The Board of Regents of the University of Texas System, priority 1996, dated 2005).

Each structure is given as a SMILES string. Where two headings read alike, the source gives them in different places.

A word on the EC50: it is the concentration needed to bring the measured effect to its halfway point.

In assay [1] the target is T1, LXRα (Homo sapiens, UniProt Q13133).
T1 sequence (Q13133 1-447): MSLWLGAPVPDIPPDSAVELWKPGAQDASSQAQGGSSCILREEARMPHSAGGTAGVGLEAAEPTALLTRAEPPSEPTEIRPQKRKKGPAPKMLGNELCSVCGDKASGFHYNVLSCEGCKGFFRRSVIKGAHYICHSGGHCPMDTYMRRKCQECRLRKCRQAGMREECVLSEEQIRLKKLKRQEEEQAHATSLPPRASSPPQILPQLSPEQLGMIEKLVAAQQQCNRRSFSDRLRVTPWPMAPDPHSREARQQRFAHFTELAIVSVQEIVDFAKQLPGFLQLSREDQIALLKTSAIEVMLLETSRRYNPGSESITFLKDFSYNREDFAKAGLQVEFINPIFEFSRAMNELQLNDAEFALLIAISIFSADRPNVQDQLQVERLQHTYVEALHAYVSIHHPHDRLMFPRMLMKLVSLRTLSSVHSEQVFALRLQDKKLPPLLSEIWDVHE
T1 sequence (P19793 1-462 partner): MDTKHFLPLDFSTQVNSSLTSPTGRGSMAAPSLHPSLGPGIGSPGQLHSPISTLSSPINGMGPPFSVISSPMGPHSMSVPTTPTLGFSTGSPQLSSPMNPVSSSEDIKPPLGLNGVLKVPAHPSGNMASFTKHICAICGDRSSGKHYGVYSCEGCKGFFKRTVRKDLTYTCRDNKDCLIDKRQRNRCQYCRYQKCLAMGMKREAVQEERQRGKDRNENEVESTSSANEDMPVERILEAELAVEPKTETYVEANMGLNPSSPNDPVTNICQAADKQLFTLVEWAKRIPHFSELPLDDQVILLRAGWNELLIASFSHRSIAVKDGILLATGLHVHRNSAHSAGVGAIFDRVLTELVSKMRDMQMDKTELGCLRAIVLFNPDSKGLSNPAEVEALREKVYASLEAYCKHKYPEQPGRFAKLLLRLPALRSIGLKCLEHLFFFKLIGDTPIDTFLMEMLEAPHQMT
The assay can be described thus: LXRα cotransfection assay with TK-LXREx3-LUC reporter in CV-1 cells. The format is cell-based. Details: expressed in transfected cells; host or cells: CV-1 monkey kidney cells. The settings on record: for LXRα activity: 10 μM, CV-1 cotransfection assay. How it is done: FIG. 1 Human LXRα is activated by gonad sterols. (A) Transactivation of LXRα ligand binding domain (LBD) with testis extract. CV-1 cells were cotransfected with a GAL4 responsive luciferase reporter plasmid and an expression plasmid encoding no receptor or a chimeric receptor composed of the GAL4 DNA binding domain fused to the LXRα ligand binding domain (LBD) (GAL4-LXRα)^3. After transfection, cells were treated with ethanol (ETOH) or 1% of the concentrated testis extract. (B) Transactivation of LXRα with follicular fluid meiosis activating substance (FF-MAS). CV-1 cells were cotransfected with an LXRα responsive reporter plasmid and the receptor expression plasmids for LXRα alone or with RXRα. After transfection, cells were treated with ETOH or […] FF-MAS.
FIG. 2 LXRα is activated by a specific subset of oxysterols. (A) Specificity of LXRα activators. Shown is a representative group from 70 compounds evaluated for LXRα activity (10 μM) in cotransfection assays as described in FIG. 1B. […] (B) The the structure-activity relationship of LXRα activators. Data compiled from FIG. 2A and other experiments (not shown) reveal that the position of the hydroxyl on the cholesterol backbone is a determinant of LXRα activity. […] Dose response curves for LXRα activators were generated in CV-1 cell cotransfection assays as described in FIG. 1B.
Organic extraction of breeding bull testis was performed as described^6. Briefly, 12 grams of lyophilized testis was extracted with N-heptane and lipids were concentrated by roto-evaporation. Aliquots representing 1% of this material were assayed. FF-MAS was synthesized as described^18. Transient transfections in CV-1 monkey kidney cells were performed in triplicate in 48-well plates as described^3 with media containing 5% cabosil-treated calf bovine serum.
Transfections were performed in FIG. 1A using 80 ng of TK-MH100x4-LUC reporter and 30 ng of CMX-GAL4-hLXRα expression plasmids per well; and in FIG. 1B using 50 ng of TK-LXREx3-LUC reporter and 25 ng of CMX-hLXRa alone or with 25 ng CMX-hRXRa expression plasmids per well. Candidate ligands were dissolved in ethanol and added 8 hours post-transfection. As an internal standard, 50 ng of CMX-β gal was included in all transfections. All plasmid constructs and determinations of luciferase and β-galactosidase activities have been described^3. To construct CMX-LXRα, the hLXRα cDNA insert was excised from the plasmid pXR2DRV (Willy, et al., 1995, Genes Dev. 9: 1033-1045) with Kpnl and BamHI and was ligated into the expression vector CMX. CMX-βgal was constructed by ligating the β-galactosidase gene into the expression vector CMX. Chimeric Gal4-receptor expression plasmid (CMX-GAL4-LXRα) was constructed by first ligating the GAL4 portion of pSC424 (Sadowski, I. and M. Ptashne, 1989, Nucleic Acids Res. 19: 7539-7530) into the HindIII/SacI sites of pCMX (Umesono, et al., 1991, Cell 65: 1255-1266) to create pCMX-GAL4. This vector contains the CMV promoter fused to the coding sequence for GAL4 (1-147), followed by inframe polylinker cloning sites and translational stop codons. The cDNAs encoding the ligand-binding domain (LBD) of hLXRα (amino acids 166-447) was then ligated into the polylinker to create CMX-GAL4-LXRα.
Reporter plasmids for these studies were constructed by ligating the appropriate oligonucleotides into the HindIII site of the TK-LUC vector to create TK-LXREx3-LUC, TK-MH100x4-LUC (Kang, T., et al., 1993, J. Biol Chem. 268: 9629-9635). The sense strand of the LXRE oligonucleotide used to construct the reporter plasmid TK-LXREx3-LUC was 5′agctt[…]3′ (SEQ. ID. NO. 1). All constructs were verified by sequencing. Data are presented as relative light units (RLUs) and represent the mean of triplicate assays±standard error. […]

Assay [2] deals with T2, LXRα protein (Homo sapiens, UniProt Q13133).
T2 construct: made in house; host or cells: in vitro synthesis (cell-free translation)
T2 sequence (Q13133 1-447): T1 sequence (Q13133 1-447)
The assay can be described thus: Limited protease protection assay (chymotrypsin) of [35S]-labelled Flag-LXRα. Type of assay: binding. The settings on record: increasing concentrations of chymotrypsin, SDS-PAGE and autoradiography. How it is done:
FIG. 4, Protease protection of LXRα with 22(R)-hydroxycholesterol. [^35S]-labelled LXRα protein was incubated with (A) ethanol (ETOH) control or (B) 22(R)-hydroxycholesterol, subjected to protease digestion with increasing amounts of chymotrypsin, and analyzed by SDS-PAGE and autoradiography.
In vitro synthesized [^35S]-labelled Flag-LXRα protein was subjected to protease digestion with α-chymotrysin. For these studies, LXRα with a Flag epitope fused to the amino terminus was used.
The unavailability of radiolabelled LXRα activators prevents direct ligand binding analysis. To address the possibility that 22(R)-hydroxycholesterol interacts with LXRα, a limited protease protection assay was performed (FIG. 4). In this experiment, several proteolytic fragments were generated when LXRα protein was incubated with increasing concentrations of the protease, chymotrypsin. […] The presence of a specific ligand-protected ˜30 kDa fragment has also been observed during similar analyses with other nuclear receptors. Thus, these protease protection studies support the finding that 22(R)-hydroxycholesterol interacts with LXRα.

The test system of assay [3] is RXR/LXR heterodimer. The assay can be described thus: RXR/LXR heterodimer activation, dose response in CV-1 cells with TK-LXREx3-LUC. Type of assay: cell-based, human. Conditions: LXRα expression plasmid, dose-dependent. The method, then: TK-DR-4-LUC; human vitamin D receptor (VDR)^24, TK-DR^3-LUC; human peroxisome proliferator-activated receptor-α (PPARα)^25, TK-PPREx3-LUC; human farnesol activated receptor (FXR)^11, ΔMTV-EcREx5-LUC; human estrogen receptor (ER)^26, ΔMTV-ERE-LUC; human glucocorticoid receptor (GR)^27, MTV-LUC; Drosophila ecdysone receptor (usp/EcR)^15, ΔMTV-EcREx5-LUC. Cells were treated with ETOH or 6 μM 22(R)-hydroxycholesterol. […] FIG. 3(A)-3(D) Activation of LXRα by 22(R)-hydroxycholesterol in Drosophila (SL-2) cells. […] CV-1 cells were cotransfected with TK-LXREx3-LUC reporter plasmid and expression plasmids containing the indicated receptor combinations, and then treated with the indicated ligands. […] CV-1 cells cotransfected with the LXRα expression plasmid and TK-LXREx3-LUC reporter were treated with 9-cis RA, 22(R)-hydroxycholesterol, or both, at the indicated concentrations.
In FIG. 3B. Drosophila SL-2 cells were transfected and assayed as previously described^5 in 6-well plates with […] A5C-hLXRα or A5C-hLXRα, 0.5 mg ADH-LXREx2-LUC, 0.2 mg A5C-βGAL and […] PGEM4 carrier DNA per well.
A subset of receptors that function as RXR heterodimers have the unique ability to be activated by their own ligand, the RXR ligand (i.e., 9-cis retinoic acid), or both ligands together^11,17. […]

Where [4] appears, read: CV-1 cell cotransfection, dose response curves, read-out: EC50 for LXRα activators.

For the molecule `C[C@H](CCCC(C)(C)O)[C@H]1CC[C@H]2[C@@H]3CC=C4C[C@@H](O)CC[C@]4(C)[C@H]3CC[C@]12C` [25-hydroxycholesterol], the EC50 in assay [1] (setting [4]) was 3.5 µM.

On to `CC(C)CCC[C@@H](C)[C@H]1CC[C@H]2[C@@H]3CC=C4C[C@@H](O)CC[C@]4(C)[C@H]3CC[C@]12C` [cholesterol], for which, in assay [2], the “ligand-protected 30 kDa chymotrypsin fragment of LXRα” value was “not”. Take `CC(C)CCC[C@](C)(O)[C@H]1CC[C@H]2[C@@H]3CC=C4C[C@@H](O)CC[C@]4(C)[C@H]3CC[C@@]21C` [20(S)-hydroxycholesterol]: the EC50 in assay [1] (setting [4]) worked out at 1.6 µM. On the same count and under the same terms, with `CC(C)CCC[C@@H](C)[C@H]1CC[C@H]2[C@@H]3[C@@H](O)C=C4C[C@@H](O)CC[C@]4(C)[C@H]3CC[C@]12C` [7β-hydroxycholesterol] the figure was 3.5 µM.

Regarding `CC(C)=CCC[C@@H](C)[C@H]1CC=C2C3=C(CC[C@@]21C)[C@@]1(C)CC[C@H](O)C(C)(C)[C@@H]1CC3` [FF-MAS], in assay [1] (setting [4]), the concentration for a half-maximal effect (EC50) amounted to 3.5 µM. Also, in assay [1] (CV-1 cells, wild-type LXRα, TK-LXREx3-LUC, 50 mM FF-MAS vs ETOH), the “induction of transcription by LXRα” value is 5-6 fold. In the case of `CC(C)=CCCC(C)=CCCC(C)=CCO` [farnesol, reference compound], the LXRα activity result in assay [1] is on record as “no LXRα activity”.

As to `CC(C)CC[C@H](O)[C@@H](C)[C@H]1CC[C@H]2[C@@H]3CC=C4C[C@@H](O)CC[C@]4(C)[C@H]3CC[C@]12C` [22(S)-hydroxycholesterol], the LXRα activity result in assay [1] was “completely inactive”. Take `CC1=C(/C=C/C(C)=C\C=C\C(C)=C\C(=O)O)C(C)(C)CCC1` [9-cis retinoic acid, reference compound]: the maximal induction in assay [3] is 7 fold. Moreover, in assay [2], the “ligand-protected 30 kDa chymotrypsin fragment of LXRα” value was “not”. On to `CC(C)C(O)CC[C@@H](C)[C@H]1CC[C@H]2[C@@H]3CC=C4C[C@@H](O)CC[C@]4(C)[C@H]3CC[C@]12C` (some centres unmarked) [24-hydroxycholesterol], for which the EC50 in assay [1] was found to be 1.6 µM.
